Experimental data as given in US11345702B1 (Myoforte Therapeutics, Inc., priority 2020, dated 2022).

Molecular target: 15-PGDH/HPGD (Homo sapiens (Human), UniProt P15428)
Test: hPGDH inhibitor screening biochemical assay
Settings: read-out: hPGDH: Average IC50
Description: A hydroxyprostaglandin dehydrogenase inhibition screening biochemical assay can be performed to assess the synthesized inhibitors provided herein. Provided herein is an exemplary biochemical assay for hPGDH inhibitor screening.
The in vitro biochemical assay can be performed in white, 384 plates in total 20 μl reaction volume consisting of 10 nM of 15-PGDH/HPGD (R&D System #5660-DH), 15 μM Prostaglandin E2 (Sigma, Cat #P5640-10MG) and 0.25 mM (3-Nicotinamide adenine dinucleotide sodium salt (Sigma, Cat #N0632-5G) made in reaction buffer (50 mM Tris-HCl, pH 7.5, 0.01% Tween 20) at 10-point dose response curve for test/tool compounds. Briefly, 5 μl (4×) of compounds solution and 5 μl (final concentration, 10 nM) of enzyme solution is added to white 384 well plates and incubated for 10 mins at 37° C. 5 μl (4×) of Prostaglandin E2 and 5 μl (4×) of β-Nicotinamide adenine dinucleotide sodium salt is added to the wells and incubated for 10 mins at room temperature. Fluorescence is recorded at ex/em=340 nm/485 nm. The percentage (%) inhibition of enzyme activity was determined relative to positive control (1% DMSO) and IC50 was calculated using GraphPad prism software (four parameter-variable slope equation).

Chain of 15-PGDH/HPGD (P15428 whole entry): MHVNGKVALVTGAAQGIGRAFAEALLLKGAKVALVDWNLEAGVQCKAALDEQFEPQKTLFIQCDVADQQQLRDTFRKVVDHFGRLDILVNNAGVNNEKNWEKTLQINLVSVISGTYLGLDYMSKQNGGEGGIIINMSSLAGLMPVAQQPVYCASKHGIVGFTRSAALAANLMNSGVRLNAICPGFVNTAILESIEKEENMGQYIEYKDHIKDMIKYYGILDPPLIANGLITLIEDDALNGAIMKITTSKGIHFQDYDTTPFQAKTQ

Structure (SMILES) | IC50
O=C(Nc1ccno1)c1ccc(-n2ccc3cc(C(=O)N4CCC(F)(F)CC4)cnc32)cn1 | < 100 nM
N#Cc1ccc(-n2ccc3cc(C(=O)N4CC[C@H](F)C4)cnc32)cc1 (single isomer, unassigned) [MF-DH-574] | < 100 nM
N#Cc1ccc(-n2ccc3cc(C(=O)N4CC[C@@H](F)C4)cnc32)cc1 (single isomer, unassigned) [MF-DH-575] | < 100 nM
COc1ccc(-n2c(N)nc3cc(C(=O)N4CCC(F)CC4)cnc32)cc1 [MF-DH-115] | 100 to 1000 nM
COc1ccc(-n2c(NC(C)=O)nc3cc(C(=O)N4CCC(F)CC4)cnc32)cc1 [MF-DH-116] | ≥ 1000 nM
COc1ccc(-n2c(CCNC(C)=O)nc3cc(C(=O)N4CCC(F)CC4)cnc32)cc1 [MF-DH-117] | ≥ 1000 nM
COc1cc(C(=O)N2CCC(F)CC2)ccc1COc1ccccc1Cl [MF-DH-118] | 100 to 1000 nM
O=C(c1ccc(COc2ccccc2Cl)cn1)N1CCC(F)CC1 [MF-DH-121, (5-((2-chlorophenoxy)methyl)pyridin-2-yl)(4-fluoropiperidin-1-yl)methanone] | ≥ 1000 nM
O=C(c1cnc2c(ccn2-c2cnccn2)c1)N1CCC(F)CC1 [MF-DH-123] | < 100 nM
COc1ccc(Cn2cnc(-n3ccc4cc(C(=O)N5CCCCC5)cnc43)c2)cc1 [MF-DH-128] | 100 to 1000 nM
COc1ccc(Cn2cc(-n3ccc4cc(C(=O)N5CCCCC5)cnc43)cn2)cc1 [MF-DH-129] | 100 to 1000 nM
O=C(c1cnc2c(ccn2-c2ccncn2)c1)N1CCC(F)CC1 [MF-DH-131] | < 100 nM
O=C(c1cnc2c(c1)c(Cl)cn2-c1ccncn1)N1CCC(F)CC1 [MF-DH-132] | 100 to 1000 nM
O=C(c1cnc2c(ccn2-c2ccc(O)nc2)c1)N1CCC(F)CC1 [MF-DH-133] | < 100 nM
O=C(c1cnc2c(ccn2-c2cccnc2)c1)N1CCC(F)CC1 [MF-DH-134] | < 100 nM
O=C(c1cnc2c(c1)c(Cl)cn2-c1cccnc1)N1CCC(F)CC1 [MF-DH-135] | < 100 nM
COc1ccc(-n2cnc3cc(C(=O)N4CC(F)C4)cnc32)cc1 [MF-DH-138] | 100 to 1000 nM
Cn1cc(-n2ccc3cc(C(=O)N4CCC(F)CC4)cnc32)cn1 [MF-DH-139] | < 100 nM
Cn1cc(-n2cc(Cl)c3cc(C(=O)N4CCC(F)CC4)cnc32)cn1 [MF-DH-140] | < 100 nM
COc1ccc(-n2cnc3cc(C(=O)N4CCC(F)CC4)ccc32)nc1 [MF-DH-141] | < 100 nM
O=C(c1cnc2c(c1)c(Cl)cn2-c1cncnc1)N1CCC(F)CC1 [MF-DH-145] | < 100 nM
O=C(c1cnc2c(ccn2-c2cnccn2)c1Cl)N1CCC(F)CC1 [MF-DH-146] | < 100 nM
O=C(c1cnc2c(c(Cl)cn2-c2cnccn2)c1Cl)N1CCC(F)CC1 [MF-DH-147] | < 100 nM
Cc1nc2c(ccn2-c2cnccn2)cc1C(=O)N1CCC(F)CC1 [MF-DH-148] | ≥ 1000 nM

Structure (SMILES) | IC50
Cc1nc2c(cc1C(=O)N1CCC(F)CC1)c(Cl)cn2-c1cnccn1 [MF-DH-149] | ≥ 1000 nM
Cc1c(C(=O)N2CCC(F)CC2)cnc2c1ccn2-c1cnccn1 [MF-DH-150, (4-fluoropiperidin-1-yl)(4-methyl-1-(pyrazin-2-yl)-1H-pyrrolo[2,3-b]pyridin-5-yl)methanone] | < 100 nM
COc1ccc(-n2ccc3cc(C(=O)N4CCC(F)CC4)cnc32)cn1 [MF-DH-157] | < 100 nM
CC1(C)CCN(c2cnccn2)c2ccc(C(=O)N3CCC(F)CC3)cc21 [MF-DH-160, (4,4-dimethyl-1-(pyrazin-2-yl)-1,2,3,4-tetrahydroquinolin-6-yl)(4-fluoropiperidin-1-yl)methanone] | 100 to 1000 nM
COc1ccc(-n2c(C)nc3cc(C(=O)N4CCC(F)CC4)cnc32)cc1 [MF-DH-176] | 100 to 1000 nM
Cc1cn(-c2cncnc2)c2ccc(C(=O)N3CCC(F)CC3)cc12 [MF-DH-178, (4-fluoropiperidin-1-yl)(3-methyl-1-(pyrimidin-5-yl)-1H-indol-5-yl)methanone] | 100 to 1000 nM
Cc1cn(-c2cnccn2)c2ccc(C(=O)N3CCC(F)CC3)cc12 [MF-DH-180, (4-fluoropiperidin-1-yl)(3-methyl-1-(pyrazin-2-yl)-1H-indol-5-yl)methanone] | 100 to 1000 nM
COc1ccc(-c2cn(C)c3cc(C(=O)N4CCC(F)CC4)cnc23)cc1 [MF-DH-181, (4-fluoropiperidin-1-yl)(3-(4-methoxyphenyl)-1-methyl-1H-pyrrolo[3,2-b]pyridin-6-yl)methanone] | 100 to 1000 nM
CCc1nc2cc(C(=O)N3CCC(F)CC3)cnc2n1-c1ccc(OC)cc1 [MF-DH-184] | 100 to 1000 nM
COCCc1nc2cc(C(=O)N3CCC(F)CC3)cnc2n1-c1ccc(OC)cc1 [MF-DH-185] | ≥ 1000 nM
COCCc1nc2cc(C(=O)N3CCC(F)CC3)ccc2n1-c1ccc(OC)cc1 [MF-DH-186] | 100 to 1000 nM
COc1ccc(-n2cc(Cl)c3cc(C(=O)N4CCC(F)CC4)cnc32)cc1 [MF-DH-191, (3-chloro-1-(4-methoxyphenyl)-1H-pyrrolo[2,3-b]pyridin-5-yl)(4-fluoropiperidin-1-yl)methanone] | < 100 nM
COc1ccc(-n2c(CCC(F)(F)F)nc3cc(C(=O)N4CCC(F)CC4)cnc32)cc1 [MF-DH-195] | 100 to 1000 nM
COc1ccccc1-c1cn(C)c2cc(C(=O)N3CCC(F)CC3)cnc12 [MF-DH-200, (4-fluoropiperidin-1-yl)(3-(2-methoxyphenyl)-1-methyl-1H-pyrrolo[3,2-b]pyridin-6-yl)methanone] | ≥ 1000 nM
COc1ccc(-c2c[nH]c3cc(C(=O)N4CCC(F)CC4)cnc23)cc1 [MF-DH-204] | 100 to 1000 nM
O=C(c1cnc2c(c1)ncn2-c1ccc(OC(F)F)cc1)N1CCC(F)CC1 [MF-DH-222] | 100 to 1000 nM
O=C(c1cnc2c(c1)ncn2-c1cccc(OC(F)(F)F)c1)N1CCC(F)CC1 [MF-DH-226] | 100 to 1000 nM
CCC(CC)n1cnc2cc(C(=O)N3CCCCC3)cnc21 [MF-DH-236] | 100 to 1000 nM
O=C(c1cnc2c(c1)ncn2-c1ccc(O)cc1)N1CCC(F)CC1 [MF-DH-238] | 100 to 1000 nM
COc1ccc(-n2cc(Cl)c3cc(C(=O)N4CCCCC4)cnc32)cc1 [MF-DH-239] | < 100 nM
O=C(c1cnc2c(c1)c(Cl)cn2-c1ccc2c(c1)OC(F)(F)O2)N1CCC(F)CC1 [MF-DH-250] | < 100 nM
O=C(c1cnc2c(c1)c(Cl)cn2-c1ccc2c(c1)OC(F)(F)O2)N1CCCCC1 [MF-DH-251] | < 100 nM
O=C(c1ccc2c(c1)c(Cl)nn2-c1cncc(Cl)c1)N1CCCCC1 [MF-DH-271] | 100 to 1000 nM
COc1cccc(-n2nc(Cl)c3cc(C(=O)N4CCCCC4)ccc32)c1 [MF-DH-272] | 100 to 1000 nM

Structure (SMILES) | IC50
COc1cccc(-n2cc(Cl)c3cc(C(=O)N4CCCCC4)cnc32)c1 [MF-DH-273] | < 100 nM
O=C(c1cnc2c(c1)c(Cl)cn2-c1cncc(Cl)c1)N1CCCCC1 [MF-DH-274] | < 100 nM
COc1cncc(-n2cc(Cl)c3cc(C(=O)N4CCCCC4)cnc32)c1 [MF-DH-275] | < 100 nM
O=C(c1cnc2c(ccn2C2CCC(F)(F)CC2)c1)N1CCCCC1 [MF-DH-284] | ≥ 1000 nM
COc1ccc(-n2ccc3cc(C(=O)N4CCC(F)CC4)cnc32)cc1 [MF-DH-285] | < 100 nM
COc1ccc(-n2ccc3c(C#N)c(C(=O)N4CCCCC4)cnc32)cc1 [MF-DH-289, 1-(4-methoxyphenyl)-5-(piperidine-1-carbonyl)-1H-pyrrolo[2,3-b]pyridine-4-carbonitrile] | < 100 nM
COc1ccc(-n2ccc3c(N)c(C(=O)N4CCCCC4)cnc32)cc1 [MF-DH-290, (4-amino-1-(4-methoxyphenyl)-1H-pyrrolo[2,3-b]pyridin-5-yl)(piperidin-1-yl)methanone] | < 100 nM
COc1cccc(-n2ccc3cc(C(=O)N4CCCCC4)cnc32)c1 [MF-DH-294] | < 100 nM
O=C(c1cnc2c(ccn2-c2cncc(Cl)c2)c1)N1CCCCC1 [MF-DH-295] | < 100 nM
COc1cncc(-n2ccc3cc(C(=O)N4CCCCC4)cnc32)c1 [MF-DH-296] | < 100 nM
COc1ccc(-n2ccc3cc(C(=O)N4CCCCC4)cnc32)cc1 [MF-DH-297] | < 100 nM
N#Cc1ccc(-n2ccc3cc(C(=O)N4CCCCC4)cnc32)cc1 [MF-DH-298] | < 100 nM
NC(=O)c1ccc(-n2ccc3cc(C(=O)N4CCCCC4)cnc32)cc1 [MF-DH-299] | < 100 nM
N#Cc1cccc(-n2ccc3cc(C(=O)N4CCCCC4)cnc32)c1 [MF-DH-300] | < 100 nM
NC(=O)c1cccc(-n2ccc3cc(C(=O)N4CCCCC4)cnc32)c1 [MF-DH-301] | < 100 nM
CN(C)c1cccc(-n2ccc3cc(C(=O)N4CCCCC4)cnc32)c1 [MF-DH-302] | < 100 nM
NCc1cccc(-n2ccc3cc(C(=O)N4CCCCC4)cnc32)c1 [MF-DH-303] | 100 to 1000 nM
NCc1ccc(-n2ccc3cc(C(=O)N4CCCCC4)cnc32)cc1 [MF-DH-304] | < 100 nM
CN(C)c1ccc(-n2ccc3cc(C(=O)N4CCCCC4)cnc32)cc1 [MF-DH-305] | < 100 nM
CCOc1ccc(-n2ccc3cc(C(=O)N4CCCCC4)cnc32)cc1 [MF-DH-306] | < 100 nM
O=C(c1cnc2c(ccn2-c2ccc(CO)cc2)c1)N1CCCCC1 [MF-DH-307] | < 100 nM
O=C(c1cnc2c(ccn2-c2cccc(CO)c2)c1)N1CCCCC1 [MF-DH-308] | < 100 nM
CS(=O)(=O)c1cccc(-n2ccc3cc(C(=O)N4CCCCC4)cnc32)c1 [MF-DH-309] | < 100 nM
CS(=O)(=O)c1ccc(-n2ccc3cc(C(=O)N4CCCCC4)cnc32)cc1 [MF-DH-310] | < 100 nM
